In patent US20160362478A1, “CD4-MIMETIC SMALL MOLECULES SENSITIZE HUMAN IMMUNODEFICIENCY VIRUS TO VACCINE-ELICITED ANTIBODIES” (priority 2014, published 2016):

What was measured:
[1] = target: HIV-1 JR-FL envelope glycoproteins (Env) (HIV-1 JR-FL); test: cell-based or functional assay
[2] = target: HIV-1 YU2 envelope glycoproteins (Env) (HIV-1 YU2) (UniProt P35961); test: cell-based or functional assay
[3] = tested on: primary CD4 T cells infected with transmitted/founder (T/F) viruses and their 6-month counterparts; test: Recognition of primary CD4 T cells infected with primary HIV-1 by HIV-1+ sera; type: cell-based, human; details: data not shown
[4] = tested on: HIV-1 YU2; test: Infection of Cf2Th-CD4/CCR5 cells by single-round luciferase virus with HIV-1 YU2 Env; type: cell-based; details: Human immunodeficiency virus 1, Cf2Th-CD4/CCR5, read-out: IC50, inhibition of HIV-1 YU2 infection
Protocol: (§1) Recombinant luciferase viruses: 293T human embryonic kidney cells were co-transfected with plasmids expressing the pCMVΔP1Δenv HIV-1 Gag-Pol packaging construct, the R5 YU2 envelope glycoproteins, or the envelope glycoprotein of the control amphotropic murine leukemia virus (A-MLV), and the firefly luciferase-expressing vector at a DNA ratio of 1:1:3 μg using the Effectene transfection reagent (Qiagen). Co-transfection produced single-round, replication-defective viruses. The virus-containing supernatants were harvested 36-40 h after transfection, spun, aliquoted, and frozen at −80° C. until further use. The reverse transcriptase (RT) activities of all viruses were measured as described in Rho, H. M., et al. Virology 1981, 112, 355-360.
(§2) Infection by single-round luciferase viruses. Cf2Th-CCR5-CD4 target cells were seeded at a density of 6×10^3 cells/well in 96-well luminometer-compatible tissue culture plates (PerkinElmer) 24 h before infection. […] In the case of sensitization assays, a constant concentration of compounds was incubated with virus for 30 min at 37° C.; then, 17b or other antibodies (0-100 μg/mL) were added to the virus/compound mixture and incubated for an additional 30 min at 37° C. […]

[5] = tested on: HIV-1 YU2; test: Sensitization assay: antibody neutralization of HIV-1 YU2 with CD4-mimetic compound; type: cell-based; details: sub-neutralizing compound concentrations
Protocol: (§3) Infection by single-round luciferase viruses. Cf2Th-CCR5-CD4 target cells were seeded at a density of 6×10^3 cells/well in 96-well luminometer-compatible tissue culture plates (PerkinElmer) 24 h before infection. […] In the case of sensitization assays, a constant concentration of compounds was incubated with virus for 30 min at 37° C.; then, 17b or other antibodies (0-100 μg/mL) were added to the virus/compound mixture and incubated for an additional 30 min at 37° C. The mixtures were then added to the target cells and incubated for 48 h at 37° C.; after this time, the medium was removed from each well, and the cells were lysed by the addition of 30 μL passive lysis buffer (Promega) and three freeze-thaw cycles. An EG&G Berthold Microplate Luminometer LB 96V was used to measure the luciferase activity of each well after the addition of 100 μL of luciferin buffer (15 mM MgSO4, 15 mM KPO4, pH 7.8, 1 mM ATP, and 1 mM dithiothreitol) and 50 μL of 1 mM Firefly D-Luciferin Free Acid 99% (Prolume).
The ability of (+)-DMJ-I-228 and (+)-DMJ-II-121 to each sensitize HIV-1 to neutralization by antibodies was examined using the single-round infection of Cf2Th-CD4/CCR5 cells by recombinant HIV-1 encoding firefly luciferase. The recombinant viruses were pseudotyped with the HIV-1 Envs derived from the primary R5 HIV-1 JR-FL and YU2 isolates. […]

[6] = tested on: HIV-1 JR-FL; test: Cold inactivation of recombinant virus on ice; type: cell-based; details: compound 50 μM
Protocol: Cold Inactivation. […] Cf2Th-CCR5-CD4 target cells were seeded at a density of […] cells/well in a 96-well luminometer-compatible tissue-culture plate (PerkinElmer) 24 h before infection. The mixtures were then added to target cells and incubated for 48 h at 37° C.; after this time, the medium was removed from each well, and the cells were lysed by the addition of 30 μL passive lysis buffer (Promega) and three freeze-thaw cycles. An EG&G Berthold Microplate Luminometer LB 96V was used to measure the luciferase activity of each well after the addition of 100 μL of luciferin buffer (15 mM MgSO4, 15 mM KPO4, pH 7.8, 1 mM ATP, and 1 mM dithiothreitol) and 50 μL of 1 mM Firefly D-Luciferin Free Acid 99% (Prolume).

[7] = tested on: HIV-1 JR-FL; test: Infection of Cf2Th-CD4/CCR5 cells by single-round luciferase virus with HIV-1 JR-FL Env; type: cell-based; details: for IC50: Human immunodeficiency virus 1, Cf2Th-CD4/CCR5, read-out: IC50, inhibition of HIV-1 JR-FL infection; for inhibition of HIV-1 JR-FL virus relative to parental NBD-556: cells expressing CD4 and CCR5
Protocol: as §1, §3
The ability of selected CD4-mimetic compounds to inhibit HIV-1 entry was examined. […] Recombinant HIV-1 expressing the firefly luciferase gene was pseudotyped with different envelope glycoproteins, either HIV-1 JR-FL Env or, as a control, the amphotropic murine leukemia virus (A-MLV) envelope glycoproteins. The recombinant viruses were incubated with cells expressing CD4 and CCR5 in the presence of different concentrations of the compounds.

[8] = tested on: HIV-1; test: Inhibition of HIV-1 infection (overview statement); type: cell-based; details: Human immunodeficiency virus 1, read-out: IC50, inhibition of HIV-1 infection
[9] = target: wild-type HIV-1 YU2 gp120 glycoprotein (Human immunodeficiency virus type 1 group M subtype B, UniProt P35961); test: Isothermal titration calorimetry, binding to gp120; details: ITC, 25° C.
Protocol: Isothermal Titration Calorimetry. Thermodynamic parameters for the binding of the different inhibitors to gp120 were obtained by isothermal titration calorimetry (ITC) using a VP-ITC microcalorimeter from MicroCal/GE Healthcare (Northampton, Mass., USA). The titrations were performed at 25° C. by injecting 10 μL aliquots of inhibitor solution into the calorimetric cell (volume ˜1.4 mL) containing gp120 at a concentration of 2 μM. […] In all titration experiments, gp120 and the different inhibitors were equilibrated with PBS, pH 7.4, with 2% DMSO. The heat evolved upon each injection of inhibitor was obtained by integration of the calorimetric signal. The heat associated with inhibitor binding to gp120 was obtained by subtracting the heat of dilution from the heat of reaction. The enthalpy change (ΔH) and association constant (Ka=[…]) were obtained by nonlinear regression of the data.
The thermodynamics of the binding of each compound to the wild-type HIV-1 YU2 gp120 glycoprotein was analyzed by isothermal titration calorimetry.

[10] = tested on: HIV-1 JR-FL; test: Sensitization assay: antibody neutralization of HIV-1 JR-FL with CD4-mimetic compound; type: cell-based; details: for sensitization of HIV-1 JR-FL to neutralization by 17b and 39F antibodies: sub-neutralizing compound concentrations
Protocol: as §3
The ability of (+)-DMJ-I-228 and (+)-DMJ-II-121 to each sensitize HIV-1 to neutralization by antibodies was examined using the single-round infection of Cf2Th-CD4/CCR5 cells by recombinant HIV-1 encoding firefly luciferase. The recombinant viruses were pseudotyped with the HIV-1 Envs derived from the primary R5 HIV-1 JR-FL and YU2 isolates. Recombinant HIV-1 pseudotyped with the amphotropic murine leukemia virus (A-MLV) Env was used as a control for specificity. HIV-L neutralization was examined in the presence of sub-neutralizing concentrations of the CD4-mimetic compounds and different concentrations of monoclonal antibodies. […] The 17b antibody recognizes a well-conserved CD4i epitope on the HIV-1 gp120 core that is not formed or exposed in the unliganded Env of primary HIV-1 strains. The 39F antibody recognizes a conformation-dependent epitope in the gp120 V3 region of primary R5 HIV-1. […] and (+)-DMJ-II-121 each render primary HIV-1 isolates sensitive to neutralization by monoclonal antibodies directed against CD4i and V3 epitopes on the gp120 Env.

[11] = tested on: A-MLV; test: Infection by control virus pseudotyped with A-MLV envelope glycoproteins; type: cell-based, amphotropic murine leukemia virus; details: at 100 μM
Protocol: as §1, §2

[12] = tested on: HIV-1 transmitted/founder viruses; test: Inhibition and 17b sensitization of transmitted/founder viruses; type: cell-based
Protocol: as §3
The ability of (+)-DMJ-II-121 to sensitize HIV-1 transmitted/founder viruses to neutralization by the 17b antibody (FIG. 8A) and antisera elicited by the 3CC gp120 core immunogen (FIG. 8B) was examined. In these experiments, the recombinant viruses were pseudotyped with the HIV-1 Envs derived from HIV-1 transmitted/founder viruses. Recombinant HIV-1 pseudotyped with the primary R5 HIV-1 JR-FL and the amphotropic murine leukemia virus (A-MLV) Envs served as positive and negative controls, respectively. HIV-1 neutralization was examined in the presence of sub-neutralizing concentrations of (+)-DMJ-II-121 and different concentrations of the 17b antibody or sera.

[13] = tested on: HIV-1 JR-FL; test: Sensitization of HIV-1 JR-FL to neutralization by rabbit antisera elicited by gp120 cores; type: cell-based
Protocol: as §3
Animal inoculations and analysis of antisera. Approximately 12-week-old female New Zealand White rabbits were housed at the AAALAC-accredited facilities at Bioqual (Rockville, Md.) under specific pathogen-free conditions. At 4-week intervals, rabbits were inoculated intramuscularly with […] of affinity-purified protein formulated in GlaxoSmithKline Adjuvant System AS01B by splitting the protein-adjuvant mix in the two hind legs. Serum was prepared, heat inactivated, and assessed for anti-gp120 ELISA titers and the presence neutralizing antibodies.
(+)-DMJ-I-228 and (+)-DMJ-II-121 were examined to determine if they could sensitize HIV-1 to neutralization by antisera elicited by an Env immunogen. […] These stabilized gp120 cores were derived from the laboratory-adapted HIV-1 HXBc2 strain and lack the V1, V2, and V3 variable regions. […]

[14] = tested on: HIV-1 transmitted/founder viruses; test: Sensitization of transmitted/founder viruses to 3CC gp120 core antisera; type: cell-based
Protocol: as §3
Animal inoculations and analysis of antisera. Approximately 12-week-old female New Zealand White rabbits were housed at the AAALAC-accredited facilities at Bioqual (Rockville, Md.) under specific pathogen-free conditions. […] Serum was prepared, heat inactivated, and assessed for anti-gp120 ELISA titers and the presence neutralizing antibodies. […]

| Molecule | neutralization of pseudotyped virus, no CD4-mimetic compound [1] [µg/mL] | neutralization of pseudotyped virus, no CD4-mimetic compound [2] [µg/mL] | IC50 [4] [µM] | sensitization of HIV-1 YU2 to neutralization by 17b and 39F antibodies [5] | half-life of HIV-1 JR-FL infectivity on ice in the presence of the compound [6] [h] | IC50 [7] [µM] | inhibition of HIV-1 JR-FL virus relative to parental NBD-556 [7] | IC50 [8] [µM] | ability to bind monomeric gp120 relative to NBD-556 [9] | sensitization of HIV-1 JR-FL to neutralization by 17b and 39F antibodies [10] | inhibition of A-MLV infection [11] | also measured |
| --- | --- | --- | --- | --- | --- | --- | --- | --- | --- | --- | --- | --- |
| 17b antibody | > 100 | > 100 |  |  |  |  |  |  |  |  |  | IC50, inhibition of HIV-1 JR-FL entry into cells co-expressing CD4 and CCR5, in the presence of 30 µM (+)-DMJ-II-121 [1]: 0.6 µg/mL |
| 39F antibody | > 100 | > 100 |  |  |  |  |  |  |  |  |  |  |
| N=C(N)N[C@H]1Cc2ccccc2[C@@H]1NC(=O)C(=O)Nc1ccc(Cl)c(F)c1 [(+)-DMJ-I-228] |  |  | 46.7 | each sensitized HIV-1 YU2 and JR-FL to neutralization by the 17b and 39F antibodies | 9.1 | 86.9 | specifically inhibited the HIV-1 JR-FL virus with an improved potency | 22.9 | significant improvement in the ability to bind monomeric gp120 | each sensitized HIV-1 YU2 and JR-FL to neutralization by the 17b and 39F antibodies | Neither (+)-DMJ-I-228 nor (+)-DMJ-II-121 inhibited A-MLV infection | recognition of cells infected with four primary viruses by HIV-1+ sera [3]: significantly enhance recognition |
| N=C(N)NC[C@H]1Cc2ccccc2[C@@H]1NC(=O)C(=O)Nc1ccc(Cl)c(F)c1 [(+)-DMJ-II-121] |  |  | 3.6 | each sensitized HIV-1 YU2 and JR-FL to neutralization by the 17b and 39F antibodies | 1.9 | 27.8 | specifically inhibited the HIV-1 JR-FL virus with an improved potency | 2.3 | significant improvement in the ability to bind monomeric gp120 | each sensitized HIV-1 YU2 and JR-FL to neutralization by the 17b and 39F antibodies | Neither (+)-DMJ-I-228 nor (+)-DMJ-II-121 inhibited A-MLV infection | number of transmitted/founder viruses sensitive to compound inhibition but not sensitized to 17b neutralization [12]: Three; sensitivity of transmitted/founder virus TA5 to the compound alone ([12]; TA5 virus): did not exhibit sensitivity; number of 17b-resistant transmitted/founder HIV-1 sensitized to neutralization by the 17b antibody ([12]; of ten 17b-resistant viruses, 50 μM compound): six; sensitization of HIV-1 JR-FL to neutralization by sera from rabbits immunized with 3CC or 4CC stabilized gp120 cores [13]: sensitized HIV-1 JR-FL to neutralization; sera elicited by non-stabilized V3S core that neutralized HIV-1 JR-FL after incubation with compound [13]: None of the rabbit sera; sera from rabbits immunized with the 2CC gp120 core that neutralized HIV-1 JR-FL only in the presence of compound ([13]; five sera): Three of the five sera; sensitivity of TD12 and B5 transmitted/founder viruses to 3CC antisera in the presence of compound [14]: increased sensitivity to neutralization by 3CC antisera |
| CC1(C)CC(NC(=O)C(=O)Nc2ccc(Cl)cc2)CC(C)(C)N1 [NBD-556, reference compound] |  |  |  |  | 15.7 |  |  |  |  |  |  | effect on neutralization of HIV-1 JR-FL by the 17b antibody [10]: minimally affected; effect on neutralization of HIV-1 JR-FL by the 39F antibody ([10]; only at high concentrations): weakly increase |
